Assay results taken from the supplement of paper PMC10307832.

Tests used:
Experiment in all cases: relative viability (nuclei count vs DMSO), 5 days (fraction); higher = more cells survive
[1] = compound: Cc1ccc(-n2nc(C(C)(C)C)cc2NC(=O)Nc2ccc(OCCN3CCOCC3)c3ccccc23)cc1 [Doramapimod] + CC(C)C[C@H](NC(=O)[C@H](Cc1ccccc1)NC(=O)c1cnccn1)B(O)O [Bortezomib] (partner 0.002 µM)
How it was run: (§1)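 Relative viability divides the nuclei count in treated wells by that in vehicle wells. Lung cancer cell lines were seeded in 1536-well plates, dosed by pin tool the next day, and fixed and stained after 5 days in one step with final 0.05% Triton X-100, 1% formaldehyde and 1 ug/ml Hoechst. Dosing was a single drug or a fixed anchor-drug dose plus five library-drug doses (not always all listed) in √10 steps, and values are medians of duplicate plates imaged at 4×.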

[2] = compound: Cn1c(Nc2ccc(C(F)(F)F)cc2)nc2cc(Oc3ccnc(-c4ncc(C(F)(F)F)[nH]4)c3)ccc21 [RAF265] + Cc1cc(Nc2cc(N3CCN(C)CC3)nc(Sc3ccc(NC(=O)C4CC4)cc3)n2)n[nH]1 [Tozasertib] (partner 0.1 µM)
How it was run: as §1

[3] = compound: Cn1c(Nc2ccc(C(F)(F)F)cc2)nc2cc(Oc3ccnc(-c4ncc(C(F)(F)F)[nH]4)c3)ccc21 [RAF265] + O=C(c1cc(Cc2n[nH]c(=O)c3ccccc23)ccc1F)N1CCN(C(=O)C2CC2)CC1 [Olaparib] (partner 8 µM)
How it was run: as §1

[4] = compound: Cn1c(Nc2ccc(C(F)(F)F)cc2)nc2cc(Oc3ccnc(-c4ncc(C(F)(F)F)[nH]4)c3)ccc21 [RAF265] + C[C@@H](Oc1cc(-c2cnn(C3CCNCC3)c2)cnc1N)c1c(Cl)ccc(F)c1Cl [Crizotinib] (partner 1 µM)
How it was run: as §1

UMC-11
relative viability ([1]; first compound 0.02 µM): 0.772
relative viability ([1]; first compound 0.06325 µM): 0.784
relative viability ([1]; first compound 0.2 µM): 0.564
relative viability ([1]; first compound 0.6325 µM): 0.675
relative viability ([1]; first compound 2 µM): 0.568
relative viability ([2]; first compound 0.01 µM): 0.191
relative viability ([2]; first compound 0.03162 µM): 0.212
relative viability ([2]; first compound 0.1 µM): 0.201
relative viability ([2]; first compound 0.3162 µM): 0.19
relative viability ([2]; first compound 1 µM): 0.174
relative viability ([3]; first compound 0.01 µM): 0.408
relative viability ([3]; first compound 0.03162 µM): 0.368
relative viability ([3]; first compound 0.1 µM): 0.966
relative viability ([3]; first compound 0.3162 µM): 0.31
relative viability ([3]; first compound 1 µM): 0.329
relative viability ([4]; first compound 0.01 µM): 0.676
relative viability ([4]; first compound 0.03162 µM): 0.604
relative viability ([4]; first compound 0.1 µM): 0.602
relative viability ([4]; first compound 0.3162 µM): 0.648
relative viability ([4]; first compound 1 µM): 0.501
